In series [1] the test system is M. smegmatis mc^2155. Kind of series: microbe, parasite or virus in culture. Conditions: Mycolicibacterium smegmatis, MC^2155, 72 h, read-out: MIC M. smegmatis mc^2155. The series is classed as cell-based, Mycobacterium smegmatis.
Series [2] relates to M. fortuitum. Briefly: Microdilution MIC assay in cation-adjusted Mueller–Hinton broth. The note with it: Mycolicibacterium fortuitum, read-out: MIC M. fortuitum. The series is classed as cell-based, Mycobacterium fortuitum. (In general: Dilution methods test growth across graded concentrations, often in twofold steps.)
For series [3], the system named is M. phlei. The series is described as above. The series is classed as cell-based, Mycobacterium phlei. Conditions: Mycolicibacterium phlei, read-out: MIC M. phlei.
Series [4] concerns the target T1, M. tuberculosis MurE (Mycobacterium tuberculosis, UniProt P9WJL3).
T1 sequence (P9WJL3 1-535): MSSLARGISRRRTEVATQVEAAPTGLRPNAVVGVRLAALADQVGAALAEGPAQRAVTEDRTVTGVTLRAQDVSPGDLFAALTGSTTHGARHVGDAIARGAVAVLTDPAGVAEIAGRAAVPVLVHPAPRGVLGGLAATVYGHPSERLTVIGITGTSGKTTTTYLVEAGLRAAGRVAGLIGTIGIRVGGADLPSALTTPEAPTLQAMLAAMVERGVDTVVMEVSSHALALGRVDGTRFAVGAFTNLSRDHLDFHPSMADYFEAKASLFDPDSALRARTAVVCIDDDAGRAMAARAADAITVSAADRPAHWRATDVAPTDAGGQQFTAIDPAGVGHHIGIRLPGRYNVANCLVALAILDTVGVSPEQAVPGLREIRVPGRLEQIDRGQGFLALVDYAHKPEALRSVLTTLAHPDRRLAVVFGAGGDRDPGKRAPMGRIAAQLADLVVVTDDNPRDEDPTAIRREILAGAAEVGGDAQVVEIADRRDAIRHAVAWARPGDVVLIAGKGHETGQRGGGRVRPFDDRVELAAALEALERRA
Kind of series: MurE ligase inhibition, phosphate colorimetric detection method. The series is classed as biochemical.

The target of series [5] is T1, M. tuberculosis MurE. Kind of series: MurE ligase inhibition, HPLC quantification of UDP-MurNAc-tripeptide. The series is classed as biochemical.
In series [6] the test system is RAW264.7 macrophages. Conditions: RAW264.7, 48 h, ±SD.
The subject of series [7] is EMRSA-15. Kind of series: Microdilution MIC assay in Mueller–Hinton broth. The series is classed as cell-based. Conditions: Staphylococcus aureus, read-out: MIC S. aureus EMRSA-15.
The subject of series [8] is EMRSA-16. Kind of series: Microdilution MIC assay in Mueller–Hinton broth. The series is classed as cell-based. The note with it: Staphylococcus aureus, read-out: MIC S. aureus EMRSA-16.

The source of these data is PMC3133487 (Journal of Antimicrobial Chemotherapy, 2011).

Each structure is given as a SMILES string. ≈ marks a conversion by molar mass, not a printed value. Where “and” joins values, the source holds several entries; their conditions need not be identical. Equal entries are not always repeated.

With `NNC(=O)c1ccncc1` [Isoniazid], the MIC is 5 µg/mL and 18.5 µM in series [1]; 1 µg/mL and 3.65 µM in series [2]; 4 µg/mL and 15 µM in series [3]. The IC50 in series [4] and in series [5] was > 1000 µM each time. In series [6], the “Murine macrophages GIC50 (50% growth inhibition concentration)” value is reported as >500 mg/L.
On to `CCn1cc(C(=O)O)c(=O)c2cc(F)c(N3CCNCC3)cc21` [norfloxacin], for which the results for the MIC in series [7] and in series [8] were 0.5 µg/mL (≈ 1.57 µM) and 256 µg/mL (≈ 802 µM), respectively.

What is called IC50 is the concentration that gives 50% inhibition.
